What was measured:
Experiment in all cases: autophosphorylation, SDS-PAGE autoradiography
Format in all cases: biochemical
[1] = biological target: T1, CC1683 (Caulobacter vibrioides, UniProt Q9A7N7); conditions: 500 µM ATP with [γ-32P]ATP; 5 mM MgCl2, pH 8.0, room temperature, 30 min; labelled compound
T1 construct: gene CC_1683; recombinant from E. coli BL21, Ni-NTA purified
T1 sequence (Q9A7N7 1-555): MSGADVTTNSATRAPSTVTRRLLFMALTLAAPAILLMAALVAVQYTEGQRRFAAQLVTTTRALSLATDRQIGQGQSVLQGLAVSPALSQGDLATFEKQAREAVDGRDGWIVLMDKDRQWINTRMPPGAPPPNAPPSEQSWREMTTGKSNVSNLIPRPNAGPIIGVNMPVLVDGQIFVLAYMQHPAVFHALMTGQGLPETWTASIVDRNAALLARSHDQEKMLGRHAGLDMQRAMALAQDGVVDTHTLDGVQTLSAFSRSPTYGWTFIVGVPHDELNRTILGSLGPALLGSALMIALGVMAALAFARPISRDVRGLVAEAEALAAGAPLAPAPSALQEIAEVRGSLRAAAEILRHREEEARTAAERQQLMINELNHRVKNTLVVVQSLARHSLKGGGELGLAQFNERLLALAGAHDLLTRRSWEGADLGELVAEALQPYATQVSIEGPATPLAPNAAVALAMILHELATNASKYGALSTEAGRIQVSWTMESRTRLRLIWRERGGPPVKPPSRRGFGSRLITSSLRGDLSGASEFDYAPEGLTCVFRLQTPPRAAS

[2] = biological target: T2, CC0836 (Caulobacter vibrioides, UniProt Q9A9X5); conditions: 500 µM ATP with [γ-32P]ATP; 5 mM MgCl2, pH 8.0, room temperature, 30 min; labelled compound
T2 construct: gene CC_0836; recombinant from E. coli BL21, Ni-NTA purified
T2 sequence (Q9A9X5 1-754): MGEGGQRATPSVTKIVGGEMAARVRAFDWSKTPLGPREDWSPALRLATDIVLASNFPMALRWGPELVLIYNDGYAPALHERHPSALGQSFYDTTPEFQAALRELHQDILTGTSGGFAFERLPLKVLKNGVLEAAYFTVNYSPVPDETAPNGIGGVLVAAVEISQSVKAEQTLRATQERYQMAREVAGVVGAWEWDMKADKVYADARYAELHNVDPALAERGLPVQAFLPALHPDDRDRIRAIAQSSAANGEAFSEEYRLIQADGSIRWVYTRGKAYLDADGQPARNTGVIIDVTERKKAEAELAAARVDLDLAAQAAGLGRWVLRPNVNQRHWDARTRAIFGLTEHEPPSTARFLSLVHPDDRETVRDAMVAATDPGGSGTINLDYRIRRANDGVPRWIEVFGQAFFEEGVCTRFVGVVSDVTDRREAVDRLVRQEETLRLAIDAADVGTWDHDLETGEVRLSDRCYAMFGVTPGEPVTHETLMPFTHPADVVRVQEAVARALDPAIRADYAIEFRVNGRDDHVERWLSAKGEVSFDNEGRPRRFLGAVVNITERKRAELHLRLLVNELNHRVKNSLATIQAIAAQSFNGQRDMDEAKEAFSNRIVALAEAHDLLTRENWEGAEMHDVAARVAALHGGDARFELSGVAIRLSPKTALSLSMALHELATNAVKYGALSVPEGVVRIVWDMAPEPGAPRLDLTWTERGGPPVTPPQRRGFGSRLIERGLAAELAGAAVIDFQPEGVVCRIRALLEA

[3] = biological target: T3, CC2554 (Caulobacter vibrioides, UniProt Q9A599); conditions: 500 µM ATP with [γ-32P]ATP; 5 mM MgCl2, pH 8.0, room temperature, 15 min; labelled compound
T3 construct: gene CC_2554; recombinant from E. coli BL21, Ni-NTA purified
T3 sequence (Q9A599 1-338): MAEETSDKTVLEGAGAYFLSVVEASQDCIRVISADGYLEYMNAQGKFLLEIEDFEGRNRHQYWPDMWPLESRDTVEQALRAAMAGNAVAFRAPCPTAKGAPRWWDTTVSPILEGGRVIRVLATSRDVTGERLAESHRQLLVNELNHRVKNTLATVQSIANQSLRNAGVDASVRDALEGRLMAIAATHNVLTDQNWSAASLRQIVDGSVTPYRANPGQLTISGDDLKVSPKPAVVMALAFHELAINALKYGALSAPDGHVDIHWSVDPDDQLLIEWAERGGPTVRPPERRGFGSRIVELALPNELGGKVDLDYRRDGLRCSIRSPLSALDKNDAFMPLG

[4] = biological target: T4, CC3058 (Caulobacter vibrioides, UniProt Q9A3Z2); conditions: 500 µM ATP with [γ-32P]ATP; 5 mM MgCl2, pH 8.0, room temperature, 30 min; labelled compound
T4 construct: gene CC_3058; recombinant from E. coli BL21, Ni-NTA purified
T4 sequence (Q9A3Z2 1-465): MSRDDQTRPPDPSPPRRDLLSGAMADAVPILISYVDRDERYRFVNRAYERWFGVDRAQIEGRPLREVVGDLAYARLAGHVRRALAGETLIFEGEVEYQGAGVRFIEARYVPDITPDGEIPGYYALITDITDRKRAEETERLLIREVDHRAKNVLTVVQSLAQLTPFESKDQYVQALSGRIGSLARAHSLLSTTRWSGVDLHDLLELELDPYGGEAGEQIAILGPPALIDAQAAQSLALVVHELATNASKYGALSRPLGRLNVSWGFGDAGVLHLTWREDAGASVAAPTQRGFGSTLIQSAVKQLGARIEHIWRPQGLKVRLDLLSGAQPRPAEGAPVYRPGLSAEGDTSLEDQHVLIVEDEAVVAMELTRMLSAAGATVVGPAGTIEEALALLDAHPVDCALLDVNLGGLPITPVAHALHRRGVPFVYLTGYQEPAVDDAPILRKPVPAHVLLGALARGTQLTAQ

[5] = biological target: T5, CC2874 (Caulobacter vibrioides, UniProt Q9A4G0); conditions: 500 µM ATP with [γ-32P]ATP; 5 mM MgCl2, pH 8.0, room temperature, 15 min; labelled compound
T5 construct: gene CC_2874; recombinant from E. coli BL21, MBP-tagged (partly cleaved), Ni-NTA purified
T5 sequence (Q9A4G0 1-794): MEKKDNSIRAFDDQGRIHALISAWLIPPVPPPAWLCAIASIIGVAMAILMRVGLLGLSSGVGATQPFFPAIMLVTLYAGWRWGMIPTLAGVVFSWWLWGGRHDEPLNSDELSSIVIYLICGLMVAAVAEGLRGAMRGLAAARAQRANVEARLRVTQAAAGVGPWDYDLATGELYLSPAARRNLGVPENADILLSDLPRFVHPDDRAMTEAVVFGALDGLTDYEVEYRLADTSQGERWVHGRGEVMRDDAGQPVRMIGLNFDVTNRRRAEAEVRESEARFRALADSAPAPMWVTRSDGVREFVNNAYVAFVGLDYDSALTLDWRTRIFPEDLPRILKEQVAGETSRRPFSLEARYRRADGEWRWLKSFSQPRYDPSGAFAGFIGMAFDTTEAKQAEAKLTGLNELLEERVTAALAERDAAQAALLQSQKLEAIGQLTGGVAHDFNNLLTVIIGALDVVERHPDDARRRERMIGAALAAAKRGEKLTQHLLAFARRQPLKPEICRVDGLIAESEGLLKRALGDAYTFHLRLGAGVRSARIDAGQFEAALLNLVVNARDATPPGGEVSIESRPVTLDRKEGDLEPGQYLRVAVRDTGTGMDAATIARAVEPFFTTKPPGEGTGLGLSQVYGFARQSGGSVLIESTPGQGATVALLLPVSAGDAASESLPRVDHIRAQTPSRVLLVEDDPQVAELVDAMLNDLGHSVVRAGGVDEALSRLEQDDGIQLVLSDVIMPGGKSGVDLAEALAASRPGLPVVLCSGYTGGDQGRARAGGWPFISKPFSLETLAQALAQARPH

[6] = biological target: T6, CC2874 lacking its C-terminal receiver domain (ΔREC) (Caulobacter vibrioides, UniProt Q9A4G0); conditions: 500 µM ATP with [γ-32P]ATP; 5 mM MgCl2, pH 8.0, room temperature, 15 min; labelled compound
T6 construct: gene CC_2874; recombinant from E. coli BL21, Ni-NTA purified

[7] = biological target: T7, CC3170 (Caulobacter vibrioides, UniProt Q9A3N2); conditions: 500 µM ATP with [γ-32P]ATP; 5 mM MgCl2, pH 8.0, room temperature, 30 min; labelled compound
T7 construct: gene CC_3170; recombinant from E. coli BL21, Ni-NTA purified
T7 sequence (Q9A3N2 1-473): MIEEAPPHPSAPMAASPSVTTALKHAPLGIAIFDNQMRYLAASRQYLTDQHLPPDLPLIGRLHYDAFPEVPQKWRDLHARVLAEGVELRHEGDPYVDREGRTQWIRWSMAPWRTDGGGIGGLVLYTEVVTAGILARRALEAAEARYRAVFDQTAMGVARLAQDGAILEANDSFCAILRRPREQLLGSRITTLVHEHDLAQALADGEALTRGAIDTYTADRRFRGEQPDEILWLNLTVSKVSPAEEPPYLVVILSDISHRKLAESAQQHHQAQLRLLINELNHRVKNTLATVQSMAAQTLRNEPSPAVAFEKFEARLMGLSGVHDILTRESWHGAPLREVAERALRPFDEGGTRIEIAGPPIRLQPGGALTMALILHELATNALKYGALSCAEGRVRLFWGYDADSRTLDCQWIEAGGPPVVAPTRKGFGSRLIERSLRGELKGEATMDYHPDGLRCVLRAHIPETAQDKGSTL

Nc1ncnc2c1ncn2[C@@H]1O[C@H](COP(=O)(O)OP(=O)(O)OP(=O)(O)O)[C@@H](O)[C@H]1O [ATP]
autophosphorylation, SDS-PAGE autoradiography [1]: Purified kinases CC0836, CC1683, CC3058, and CC3170 were mixed with ATP | autophosphorylation, SDS-PAGE autoradiography [2]: Purified kinases CC0836, CC1683, CC3058, and CC3170 were mixed with ATP | autophosphorylation, SDS-PAGE autoradiography [3]: Autophosphorylation of histidine kinases CC2554 (left) and CC2874 (right) and phosphotransfer to MrrA. | autophosphorylation, SDS-PAGE autoradiography [4]: Purified kinases CC0836, CC1683, CC3058, and CC3170 were mixed with ATP | autophosphorylation, SDS-PAGE autoradiography [5]: Autophosphorylation of histidine kinases CC2554 (left) and CC2874 (right) and phosphotransfer to MrrA. | autophosphorylation, SDS-PAGE autoradiography [6]: this part of the kinase is not required for autophosphorylation and phosphotransfer to MrrA | autophosphorylation, SDS-PAGE autoradiography [7]: Purified kinases CC0836, CC1683, CC3058, and CC3170 were mixed with ATP
